Assay results published in DBAASP.
≈ marks a conversion by molar mass, not a printed value.

Legend:
Test in all cases: ≥ marks a high value that may be exact or a test limit, other limits are often not marked, values filed in µg/mL are converted to µM
[1] = tested on: Mycobacterium tuberculosis H37Rv
[2] = tested on: Candida albicans NCYC 1467
[3] = tested on: Escherichia coli NCTC 10418
[4] = tested on: Staphylococcus aureus NCTC 10788
[5] = tested on: Enterococcus faecalis ATCC 29212
[6] = tested on: Escherichia coli ATCC 25922
[7] = tested on: Staphylococcus aureus ATCC 25923
[8] = tested on: Streptococcus agalactiae
[9] = tested on: Candida albicans ATCC 90028
[10] = tested on: Staphylococcus aureus NCTC 8325
[11] = tested on: Bacillus subtilis ATCC 6051
[12] = tested on: Pseudomonas aeruginosa ATCC 27853
[13] = tested on: Streptococcus mutans
[14] = tested on: Escherichia coli DH5alpha
[15] = tested on: Klebsiella pneumoniae ATCC 10031
[16] = tested on: Salmonella enterica subsp. enterica serovar Typhimurium ATCC 14028

CC[C@H](C)[C@H](NC(=O)[C@H](CCCCN)NC(=O)[C@@H](NC(=O)[C@H](Cc1ccccc1)NC(=O)[C@@H](NC(=O)[C@@H]1CCCN1C(=O)[C@H](CS)NC(=O)[C@H](C)N)[C@@H](C)CC)[C@@H](C)O)C(=O)N[C@@H](CCC(N)=O)C(=O)NCC(=O)N[C@H](C(=O)N[C@@H](CS)C(=O)N[C@@H](Cc1ccc(O)cc1)C(=O)N[C@@H](CCCN=C(N)N)C(=O)NCC(=O)O)[C@@H](C)O [ACPIFTKIQGTCYRG]
MIC [1]: 12.1 µM (≈ 20 µg/mL)

CC[C@H](C)[C@H](NC(=O)[C@H](CC(=O)O)NC(=O)[C@H](CCCCN)NC(=O)[C@H](Cc1c[nH]c2ccccc12)NC(=O)[C@H](CC(C)C)NC(=O)[C@H](C)N)C(=O)N[C@@H](CC(C)C)C(=O)N[C@@H](CCCCN)C(=O)N[C@@H](CC(N)=O)C(=O)N[C@@H](C)C(=O)NCC(=O)N[C@@H](CCCCN)C(=O)N[C@@H](C)C(=O)N[C@@H](C)C(=O)N[C@@H](CC(C)C)C(=O)N[C@@H](CC(N)=O)C(=O)N[C@@H](CCC(=O)O)C(=O)N[C@H](C(=O)N[C@@H](CC(N)=O)C(=O)N[C@@H](CCC(N)=O)C(=O)N[C@H](C(=O)N[C@H](C(=O)N[C@@H](CCC(N)=O)C(N)=O)C(C)C)[C@@H](C)CC)[C@@H](C)CC [ALWKDILKNAGKAALNEINQIVQ]
MIC [2]: ≥ 64 µM | MIC [3]: ≥ 32 µM | MIC [4]: ≥ 256 µM

CC(C)C[C@H](NC(=O)[C@H](C)N)C(=O)N[C@@H](Cc1ccc(O)cc1)C(=O)N[C@@H](CCCCN)C(=O)N[C@@H](CCCCN)C(=O)N[C@@H](Cc1ccccc1)C(=O)N[C@@H](CCCCN)C(=O)N[C@@H](CCCCN)C(=O)N[C@@H](CCCCN)C(=O)N[C@@H](CC(C)C)C(=O)N[C@@H](CC(C)C)C(=O)N[C@@H](CCCCN)C(=O)N[C@@H](CO)C(=O)N[C@@H](CC(C)C)C(=O)N[C@@H](CCCCN)C(=O)N[C@@H](CCCN=C(N)N)C(=O)N[C@@H](CC(C)C)C(=O)NCC(=O)O [ALYKKFKKKLLKSLKRLG]
MIC [5]: 8.7 µM (≈ 18.8 µg/mL) | MIC [6]: 8.7 µM (≈ 18.8 µg/mL) | MIC [7]: 69.4 µM (≈ 150 µg/mL) | MIC [8]: 4.3 µM (≈ 9.3 µg/mL)

CC[C@H](C)[C@H](NC(=O)CNC(=O)[C@H](CCCCN)NC(=O)CNC(=O)[C@H](C)NC(=O)[C@H](Cc1ccccc1)NC(=O)[C@H](CCCCN)NC(=O)[C@H](CO)NC(=O)[C@H](Cc1ccccc1)NC(=O)[C@H](CC(C)C)NC(=O)CN)C(=O)N[C@@H](CCCCN)C(=O)N[C@@H](CC(N)=O)C(=O)N[C@@H](CC(C)C)C(=O)N[C@H](C(=O)N[C@@H](Cc1ccccc1)C(=O)N[C@@H](CCCCN)C(=O)NCC(=O)N[C@H](C(=O)N[C@@H](CCCCN)C(=O)N[C@@H](Cc1cnc[nH]1)C(=O)N[C@H](C(=O)NCC(=O)N[C@@H](CCCCN)C(=O)N[C@@H](CCC(=O)O)C(=O)N[C@H](C(=O)NCC(=O)N[C@@H](CCSC)C(=O)N[C@@H](CC(=O)O)C(=O)N[C@H](C(=O)N[C@H](C(=O)N[C@@H](CCCN=C(N)N)C(=O)N[C@H](C(=O)NCC(=O)N[C@H](C(=O)N[C@@H](CC(=O)O)C(=O)N[C@H](C(=O)N[C@@H](C)C(=O)NCC(=O)N[C@H]1CSSC[C@@H](C(=O)O)NC(=O)[C@H](CCC(=O)O)NC(=O)CNC(=O)[C@H](CCCCN)NC(=O)[C@H]([C@@H](C)CC)NC(=O)[C@H](CCCCN)NC1=O)C(C)C)[C@@H](C)CC)[C@@H](C)O)[C@@H](C)CC)C(C)C)C(C)C)[C@@H](C)CC)C(C)C)[C@@H](C)CC [GLFSKFAGKGIKNLIFKGVKHIGKEVGMDVIRTGIDVAGCKIKGEC]
MIC [9]: ≥ 50 µM | MIC [6]: 6 µM (≈ 29.2 µg/mL) | MIC [10]: 12.5 µM (≈ 60.8 µg/mL)

CC[C@H](C)[C@H](NC(=O)[C@H](Cc1c[nH]c2ccccc12)NC(=O)[C@H](Cc1ccccc1)NC(=O)[C@H](CC(C)C)NC(=O)CN)C(=O)N[C@H](C(=O)N[C@@H](CCCCN)C(=O)N[C@@H](CCCCN)C(=O)N[C@H](C(=O)N[C@H](C(=O)NCC(=O)N[C@@H](CCCCN)C(=O)N[C@@H](CC(C)C)C(=O)N[C@@H](CCCN=C(N)N)C(=O)O)[C@@H](C)CC)[C@@H](C)O)[C@@H](C)CC [GLFWIIKKTIGKLR]
MIC [11]: 9.56 µM (≈ 16 µg/mL) | MIC [6]: 9.56 µM (≈ 16 µg/mL) | MIC [12]: 4.78 µM (≈ 8 µg/mL) | MIC [7]: 76.5 µM (≈ 128 µg/mL)

CC[C@H](C)[C@H](NC(=O)CNC(=O)[C@H](CO)NC(=O)[C@H](CC(C)C)NC(=O)[C@H](CC(C)C)NC(=O)CN)C(=O)N[C@@H](CC(C)C)C(=O)NCC(=O)N[C@@H](C)C(=O)NCC(=O)N[C@@H](CCCCN)C(=O)N[C@@H](CCCCN)C(=O)N[C@H](C(=O)N[C@H](C(=O)O)C(C)C)[C@@H](C)CC [GLLSGILGAGKKIV]
MIC [2]: ≥ 32 µM | MIC [3]: ≥ 64 µM | MIC [4]: ≥ 32 µM

CC(C)C[C@H](NC(=O)[C@H](CC(C)C)NC(=O)[C@H](CCCCN)NC(=O)[C@H](CCCCN)NC(=O)[C@H](CC(C)C)NC(=O)[C@H](CCCCN)NC(=O)[C@H](CCCCN)NC(=O)[C@H](CC(C)C)NC(=O)[C@H](CC(C)C)NC(=O)[C@H](CCCCN)NC(=O)[C@H](CCCCN)NC(=O)[C@H](CC(C)C)NC(=O)[C@@H](N)CCCCN)C(=O)N[C@@H](CCCCN)C(=O)O [KLKKLLKKLKKLLK]
MIC [13]: 4.64 µM (≈ 8 µg/mL)

CC[C@H](C)[C@@H]1NC(=O)[C@H](CCCCN)NC(=O)[C@@H](NC(=O)[C@@H](NC(=O)[C@@H](NC(=O)[C@@H](NC(=O)[C@@H]2CCCN2C(=O)[C@H](CC(C)C)NC(=O)[C@H](Cc2ccccc2)NC(=O)[C@H](CC(N)=O)NC(=O)[C@H](C)NC(=O)[C@H](C)NC(=O)[C@H](CC(C)C)NC(=O)CNC(=O)[C@H](C)NC(=O)[C@H](CC(C)C)NC(=O)[C@@H](N)CC(C)C)[C@@H](C)O)[C@@H](C)CC)[C@@H](C)CC)CSSC[C@@H](C(=O)O)NC(=O)[C@H](CCCCN)NC(=O)[C@H](Cc2ccc(O)cc2)NC(=O)[C@H](CO)NC1=O [LLAGLAANFLPTIICKISYKC]
MIC [14]: ≥ 44.4 µM | MIC [15]: ≥ 44.4 µM | MIC [16]: > 44.4 µM

CC[C@H](C)[C@H](NC(=O)[C@H](CC(C)C)NC(=O)[C@@H](N)CCCN=C(N)N)C(=O)N[C@@H](CCCN=C(N)N)C(=O)N[C@H](C(=O)N[C@@H](CCC(=O)O)C(=O)N[C@@H](CCCN=C(N)N)C(=O)N[C@@H](CC(=O)O)C(=O)N[C@@H](CO)C(=O)N[C@H](C(=O)N[C@@H](CCC(=O)O)C(=O)N[C@@H](C)C(=O)N[C@@H](CC(C)C)C(=O)N[C@@H](CCSC)C(=O)N[C@@H](CCCN=C(N)N)C(=O)N1CCC[C@H]1C(=O)N[C@H](C(=O)NCC(=O)N[C@@H](CCCCN)C(=O)O)[C@@H](C)CC)C(C)C)C(C)C [RLIRVERDSVEALMRPIGK]
MIC [1]: ≥ 89.3 µM

CC[C@H](C)[C@H](NC(=O)[C@H](CCC(N)=O)NC(=O)[C@H](CCCCN)NC(=O)[C@@H](NC(=O)[C@H](CCC(N)=O)NC(=O)[C@H](CC(N)=O)NC(=O)[C@H](CC(C)C)NC(=O)[C@@H](NC(=O)[C@@H](N)CCCN=C(N)N)C(C)C)C(C)C)C(=O)N[C@@H](CC(C)C)C(=O)N[C@@H](CCCCN)C(=O)O [RVLNQVKQILK]
MIC [13]: ≥ 93.4 µM

NC(=O)[C@H](Cc1ccccc1)NC(=O)[C@H](Cc1c[nH]c2ccccc12)NC(=O)[C@H](CCCN=C(N)N)NC(=O)[C@H](Cc1c[nH]c2ccccc12)NC(=O)[C@H](CCCN=C(N)N)NC(=O)[C@H](Cc1c[nH]c2ccccc12)NC(=O)[C@H](CCCN=C(N)N)NC(=O)[C@@H]1CCCN1C(=O)[C@H](CO)NC(=O)CNC(=O)[C@H](CO)NC(=O)[C@@H]1CCCN1C(=O)[C@H](Cc1ccccc1)NC(=O)[C@H](Cc1c[nH]c2ccccc12)NC(=O)[C@H](CCCN=C(N)N)NC(=O)[C@H](Cc1c[nH]c2ccccc12)NC(=O)[C@H](CCCN=C(N)N)NC(=O)[C@H](Cc1c[nH]c2ccccc12)NC(=O)[C@@H](N)CCCN=C(N)N [RWRWRWFPSGSPRWRWRWF]
MIC [13]: 11.5 µM (≈ 32 µg/mL)

NC(=O)[C@H](Cc1ccccc1)NC(=O)[C@H](Cc1c[nH]c2ccccc12)NC(=O)[C@H](CCCN=C(N)N)NC(=O)[C@H](Cc1c[nH]c2ccccc12)NC(=O)[C@H](CCCN=C(N)N)NC(=O)[C@H](Cc1c[nH]c2ccccc12)NC(=O)[C@H](CCCN=C(N)N)NC(=O)[C@H](Cc1ccccc1)NC(=O)[C@H](Cc1c[nH]c2ccccc12)NC(=O)[C@H](CCCN=C(N)N)NC(=O)[C@H](Cc1c[nH]c2ccccc12)NC(=O)[C@H](CCCN=C(N)N)NC(=O)[C@H](Cc1c[nH]c2ccccc12)NC(=O)[C@@H](N)CCCN=C(N)N [RWRWRWFRWRWRWF]
MIC [13]: 6.76 µM (≈ 16 µg/mL)

NCCCC[C@H](NC(=O)[C@H](CCC(=O)O)NC(=O)[C@H](CC(=O)O)NC(=O)[C@H](CCC(=O)O)NC(=O)[C@H](CC(=O)O)NC(=O)[C@H](CCC(=O)O)NC(=O)[C@H](CC(=O)O)NC(=O)[C@H](CCC(N)=O)NC(=O)[C@H](CCCN=C(N)N)NC(=O)[C@@H](N)CO)C(=O)N[C@@H](CCCN=C(N)N)C(=O)N[C@@H](CCCN=C(N)N)C(=O)N1CCC[C@H]1C(=O)N[C@@H](CCCN=C(N)N)C(=O)O [SRQDEDEDEKRRPR]
MIC [11]: ≥ 1000 µM
